Numbers after ± are expanded uncertainties.
Columns and labels:
[1] = 101.33 kPa, Liquid, Capillary tube (Ostwald / Ubbelohde) method
[2] = xn = mol fraction of the nth substance listed; settings: 101 kPa, Liquid, Capillary tube (Ostwald / Ubbelohde) method

CCC(C)(C)C [2,2-dimethylbutane]
[1]
Settings | kinematic viscosity [m2/s]
283.15 K | 6.234e-07 ± 5.2e-09
298.15 K | 5.206e-07 ± 4.4e-09
313.15 K | 4.579e-07 ± 4e-09

CCCCCl [1-chlorobutane]
[1]
Settings | kinematic viscosity [m2/s]
283.15 K | 5.564e-07 ± 4.7e-09
298.15 K | 4.785e-07 ± 4.1e-09
313.15 K | 4.216e-07 ± 3.7e-09

CCC(C)CC [3-methylpentane]
[1]
Settings | kinematic viscosity [m2/s]
283.15 K | 4.928e-07 ± 4.2e-09
298.15 K | 4.366e-07 ± 3.8e-09
313.15 K | 3.881e-07 ± 3.5e-09

CC(C)CCl [1-chloro-2-methylpropane]
[1]
Settings | kinematic viscosity [m2/s]
283.15 K | 5.8e-07 ± 4.9e-09
298.15 K | 4.929e-07 ± 4.2e-09
313.15 K | 4.363e-07 ± 3.8e-09

CCCCCC [hexane]
[1]
Settings | kinematic viscosity [m2/s]
283.15 K | 5.125e-07 ± 4.4e-09
298.15 K | 4.493e-07 ± 3.9e-09
313.15 K | 4.039e-07 ± 3.6e-09

CC(C)(C)Cl [2-chloro-2-methylpropane] + CCCCCCC
kinematic viscosity [m2/s], [2]
Settings | 283.15 K | 298.15 K | 313.15 K
x2 = 0.0519 | 6.84e-07 ± 5.6e-09 | 5.603e-07 ± 4.7e-09 | 4.741e-07 ± 4.1e-09
x2 = 0.1021 | 6.722e-07 ± 5.5e-09 | 5.532e-07 ± 4.7e-09 | 4.711e-07 ± 4.1e-09
x2 = 0.2015 | 6.546e-07 ± 5.4e-09 | 5.438e-07 ± 4.6e-09 | 4.675e-07 ± 4e-09
x2 = 0.3006 | 6.44e-07 ± 5.3e-09 | 5.389e-07 ± 4.6e-09 | 4.666e-07 ± 4e-09
x2 = 0.3997 | 6.391e-07 ± 5.3e-09 | 5.38e-07 ± 4.6e-09 | 4.679e-07 ± 4.1e-09
x2 = 0.5027 | 6.376e-07 ± 5.3e-09 | 5.391e-07 ± 4.6e-09 | 4.699e-07 ± 4.1e-09
x2 = 0.6011 | 6.397e-07 ± 5.3e-09 | 5.434e-07 ± 4.6e-09 | 4.735e-07 ± 4.1e-09
x2 = 0.7014 | 6.441e-07 ± 5.3e-09 | 5.489e-07 ± 4.6e-09 | 4.78e-07 ± 4.1e-09
x2 = 0.8007 | 6.504e-07 ± 5.4e-09 | 5.572e-07 ± 4.7e-09 | 4.832e-07 ± 4.2e-09
x2 = 0.8966 | 6.591e-07 ± 5.4e-09 | 5.652e-07 ± 4.8e-09 | 4.894e-07 ± 4.2e-09
x2 = 0.9518 | 6.651e-07 ± 5.5e-09 | 5.706e-07 ± 4.8e-09 | 4.944e-07 ± 4.2e-09

CCC(C)CC [3-methylpentane] + CCCCCl
kinematic viscosity [m2/s], [2]
Settings | 283.15 K | 298.15 K | 313.15 K
x1 = 0.0518 | 5.496e-07 ± 4.6e-09 | 4.734e-07 ± 4.1e-09 | 4.175e-07 ± 3.7e-09
x1 = 0.094 | 5.448e-07 ± 4.6e-09 | 4.704e-07 ± 4.1e-09 | 4.155e-07 ± 3.7e-09
x1 = 0.2038 | 5.326e-07 ± 4.5e-09 | 4.622e-07 ± 4e-09 | 4.088e-07 ± 3.6e-09
x1 = 0.304 | 5.228e-07 ± 4.5e-09 | 4.553e-07 ± 4e-09 | 4.036e-07 ± 3.6e-09
x1 = 0.4059 | 5.143e-07 ± 4.4e-09 | 4.5e-07 ± 3.9e-09 | 3.988e-07 ± 3.5e-09
x1 = 0.5021 | 5.075e-07 ± 4.3e-09 | 4.453e-07 ± 3.9e-09 | 3.952e-07 ± 3.5e-09
x1 = 0.5999 | 5.017e-07 ± 4.3e-09 | 4.411e-07 ± 3.9e-09 | 3.921e-07 ± 3.5e-09
x1 = 0.7043 | 4.97e-07 ± 4.3e-09 | 4.382e-07 ± 3.8e-09 | 3.896e-07 ± 3.5e-09
x1 = 0.8049 | 4.945e-07 ± 4.2e-09 | 4.365e-07 ± 3.8e-09 | 3.884e-07 ± 3.5e-09
x1 = 0.9038 | 4.928e-07 ± 4.2e-09 | 4.351e-07 ± 3.8e-09 | 3.879e-07 ± 3.5e-09
x1 = 0.9492 | 4.928e-07 ± 4.2e-09 | 4.355e-07 ± 3.8e-09 | 3.877e-07 ± 3.5e-09

CCC(C)Cl (stereo not drawn) [2-chlorobutane]
[1]
Settings | kinematic viscosity [m2/s]
283.15 K | 5.237e-07 ± 4.5e-09
298.15 K | 4.603e-07 ± 4e-09
313.15 K | 4.049e-07 ± 3.6e-09

CC(C)CCl [1-chloro-2-methylpropane] + CCCCCC
kinematic viscosity [m2/s], [2]
Settings | 283.15 K | 298.15 K | 313.15 K
x2 = 0.0512 | 5.712e-07 ± 4.8e-09 | 4.863e-07 ± 4.2e-09 | 4.32e-07 ± 3.8e-09
x2 = 0.0999 | 5.631e-07 ± 4.7e-09 | 4.817e-07 ± 4.2e-09 | 4.282e-07 ± 3.8e-09
x2 = 0.2003 | 5.468e-07 ± 4.6e-09 | 4.711e-07 ± 4.1e-09 | 4.196e-07 ± 3.7e-09
x2 = 0.2993 | 5.339e-07 ± 4.5e-09 | 4.633e-07 ± 4e-09 | 4.128e-07 ± 3.6e-09
x2 = 0.4005 | 5.239e-07 ± 4.5e-09 | 4.566e-07 ± 4e-09 | 4.077e-07 ± 3.6e-09
x2 = 0.4977 | 5.171e-07 ± 4.4e-09 | 4.517e-07 ± 3.9e-09 | 4.041e-07 ± 3.6e-09
x2 = 0.598 | 5.12e-07 ± 4.4e-09 | 4.478e-07 ± 3.9e-09 | 4.017e-07 ± 3.6e-09
x2 = 0.6993 | 5.089e-07 ± 4.3e-09 | 4.462e-07 ± 3.9e-09 | 4.01e-07 ± 3.6e-09
x2 = 0.799 | 5.077e-07 ± 4.3e-09 | 4.455e-07 ± 3.9e-09 | 4.002e-07 ± 3.6e-09
x2 = 0.8967 | 5.092e-07 ± 4.4e-09 | 4.457e-07 ± 3.9e-09 | 4.006e-07 ± 3.6e-09
x2 = 0.9472 | 5.103e-07 ± 4.4e-09 | 4.474e-07 ± 3.9e-09 | 4.023e-07 ± 3.6e-09

CCCCCCC [heptane]
[1]
Settings | kinematic viscosity [m2/s]
283.15 K | 6.697e-07 ± 5.5e-09
298.15 K | 5.754e-07 ± 4.8e-09
313.15 K | 4.986e-07 ± 4.3e-09

CC(C)(C)Cl [2-chloro-2-methylpropane]
[1]
Settings | kinematic viscosity [m2/s]
283.15 K | 6.992e-07 ± 5.7e-09
298.15 K | 5.696e-07 ± 4.8e-09
313.15 K | 4.77e-07 ± 4.1e-09
